Experimental data: patent publication US20220202885A1, “ONCOLYTIC VIRUS WITH IMPROVED SAFETY AND […]” (BIONOXX INC., priority 2019, published 2022)

Legend:
[1] = test system: human breast cancer cell line (MDA-MB-231) xenograft; assay: Tumor volume in human breast cancer cell line-transplanted mice (Example 11); assay type: in vivo, mouse; conditions: MDA-MB-231 xenograft Balb/c nu/nu mice
[2] = test system: mouse colorectal cancer cell line (CT-26) allograft; assay: Tumor volume in mouse colorectal cancer cell line-transplanted mice (Example 13.2); assay type: in vivo; conditions: CT-26 allograft Balb/c mice; WOTS-418 1×10^8 pfu i.p. D0, D3 and 1×10^7 pfu i.t. D14, D21; hydroxyurea 30 mg/kg i.p. once a day
[3] = test system: CD8+ T cells secreting IFN-γ; assay type: in vivo, mouse; conditions: CT-26 allograft Balb/c mice; same doses and regimens as tumor volume test; co-culture with CT-26 cells

hydroxyurea
tumor volume on day 31 relative to the initial tumor volume ([1]; HU 30 mg/kg i.p. twice a day, day 31): ≥ 5 fold | tumor growth (tumor volume measured for 31 days) ([1]; WOTS-418 1×10^7 pfu (D0 i.p., D10 i.t.), hydroxyurea 30 mg/kg i.p. twice a day): tumor growth was not inhibited | tumor volume on day 25 compared with the control group [2]: suppressed tumor volume | CD8+ T cells secreting IFN-γ among spleen CD8+ T cells, compared with control mice (ELISPOT) [3]: abundant
